From patent US4120954A, “2,2',2"-[S-Phenenyltris(carbonylimino) ]tris-2-deoxy-D-glucopyranose and salts thereof” (American Cyanamid Company, priority 1977, dated 1978)

Tested on: shunt pathway
Experiment: Test Code 036 (C-Shunt inhibitor): lysis of fragile human erythrocytes in autologous serum via shunt pathway activated by cobra venom factor
Format: cell-based
Conditions: appropriate dilutions of test compound
From the text: An active inhibitor protects C2 from C1 and C4; (ii) Test, Code 035 (c3-C9 inhibitor) -- This test determines the ability of the late components of human complement (C3-C9) to lyse EAC 142 in the presence of appropriate dilutions of the test compound. An active inhibitor protects EAC 142 from lysis by human C3-C9; (iii) Test, Code 036 (C-Shunt inhibitor) -- In this test human erythrocytes rendered fragile are lysed in autologous serum via the shunt pathway activated by cobra venom factor in the presence of appropriate dilutions of the test compound. Inhibition of the shunt pathway results in failure of lysis; (iv) Forssman Vasculitis Test -- Here, the well known complement dependent lesion, Forssman vasculitis, is produced in guinea pigs by intradermal injection of rabbit anti-Forssman antiserum. […]

O=C(N[C@H]1C(OS(=O)(=O)O)O[C@H](COS(=O)(=O)O)[C@@H](OS(=O)(=O)O)[C@@H]1OS(=O)(=O)O)c1cc(C(=O)N[C@H]2C(OS(=O)(=O)O)O[C@H](COS(=O)(=O)O)[C@@H](OS(=O)(=O)O)[C@@H]2OS(=O)(=O)O)cc(C(=O)N[C@H]2C(OS(=O)(=O)O)O[C@H](COS(=O)(=O)O)[C@@H](OS(=O)(=O)O)[C@@H]2OS(=O)(=O)O)c1 (stereo partly drawn) [2,2',2"-[s-Phenenyltris(carbonylimino)]tris-2-deoxy-D-glucopyranose dodecakis (H-sulfate) dodecasalt with trimethylamine]
Shunt Inhibition 036 Wells: +3 Wells
